From patent US20260373248A1, “DEGRADABLE PEPTOIDS” (Medici Therapeutics, Inc., priority 2023, published 2026)
Non-standard residues stand in square brackets, D forms with d. Residues, ends and D or L forms follow the SMILES beside them. Gly(N-(3-decanoyloxypropyl)) = CCCCCCCCCC(=O)OCCCNCC(=O)O; N(3-lauroyloxypropyl)Gly = CCCCCCCCCCCC(=O)OCCCNCC(=O)O; N(2-decanoyloxyethyl)Gly = CCCCCCCCCC(=O)OCCNCC(=O)O; N(2-ethylhexyl)Gly = CCCCC(CC)CNCC(=O)O; N(CH(CH2OH)2)Gly = O=C(O)CNC(CO)CO; N(octyl)Gly = CCCCCCCCNCC(=O)O; NHexGly = CCCCCCNCC(=O)O

Key:
firefly luciferase = experiment: In vivo firefly luciferase expression after intravenous injection of fLuc mRNA delivery vehicles (IVIS imaging); design: species or system female Balb/c mice; conditions: for Total Flux (luciferase expression): fLuc mRNA, intravenous, Balb/c mice; for Total Flux: mice, 2.5 ug fLuc mRNA intravenously, 6 hours post-injection
Outline: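 Female Balb/c mice (6-8 weeks) given 2.5 ug fLuc mRNA in Nutshells IV. At 6 hours, IP D-luciferin (30 mg/mL, 10 μL/g) under isoflurane; IVIS imaging 10 minutes later, then harvested organs imaged ex vivo. Read-out: total photon flux in regions of interest.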

[1] = Delivery vehicle size and polydispersity by dynamic light scattering; assay type: physicochemical
Outline: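 LNPs made by microfluidic mixing of ethanolic peptoid/DSPC/cholesterol/DMG-PEG2000 (20:1.79:7.16:1.84 by weight) with mRNA in 10 mM citrate pH 5.0 at 1:3 by volume, then dialyzed overnight at 4 °C against tris-sucrose pH 7.4. Size and PDI read by dynamic light scattering in PBS.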

luciferase = experiment: Luciferase expression after local (intramuscular or subcutaneous) administration of mRNA; assay type: in vivo; conditions: mRNA 0.01 mpk, 6 hours; for IM Flux: intramuscular; for SC Flux: subcutaneous
Outline: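 Female Balb/c mice (6-8 weeks) received fLuc mRNA in aminolipidated peptoid Nutshells at 0.01 mpk subcutaneously or intramuscularly, or 0.1 mpk intratumorally. At 6 hours, anesthetized mice were given D-luciferin IP and imaged 10 minutes later; harvested organs were also imaged and total photon flux quantified in regions of interest.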

[2] = Peptoid quantity remaining in liver by HPLC-TOF mass spectrometry; assay type: in vivo; conditions: liver homogenate
Method: Peptoid quantity in liver was determined via high-performance liquid chromatography coupled with time-of-flight mass spectrometer (HPLC-TOF). The entire liver was weighed, and then two sections were isolated using a provided biopsy punch for liver homogenization. Liver homogenate sample was prepared by resuspending 20 mg liver tissue in 400 μL extraction solvent (IPA/MeOH=8/2) containing an internal standard (400 pg/μL) followed by bead homogenization (45 sec per cycle for 3-4 cycles). Homogenized samples were centrifuged at 12,000 rpm for 8 min at 6 °C. The resulting supernatant was collected and stored at −20 °C for further LC analysis. 5 μL of the resulting supernatant sample from solid or liquid tissue was injected into a BEH C8 column on an Agilent 1290 Infinity II liquid chromatograph coupled with an Agilent 6230 LC-TOF system. Concentrations of peptoids were determined by a linear calibration curve (linear range:0.2-50 μg/g for solid tissue). Standard calibration curve solutions were prepared by spiking untreated liver followed by homogenization and centrifugation.

hEPO = experiment: Quantification of hEPO in serum after IV injection of mRNA (Human EPO ELISA); assay type: in vivo; conditions: Balb/c mice, 2.5 μg mRNA IV, serum after 6 hours
Outline: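 Balb/c mice received 2.5 μg mRNA encoding human EPO by IV injection; serum was collected after 6 hours. hEPO was measured by sandwich ELISA (biotin-conjugate, streptavidin-HRP, TMB, A450) against kit standards (mIU/mL) and an external standard (ng/mL), with values interpolated and corrected for dilution.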

mRNA = mRNA encapsulation (modified Quant-iT RiboGreen assay); assay type: physicochemical; conditions: for mean percent encapsulation of RNA: RiboGreen, without vs with Triton X-100; for % Encapsulation: mRNA
Outline: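 Peptoid nanoparticles were incubated with Triton X-100 for 10 min to release entrapped mRNA, then mixed with RiboGreen reagent and read by fluorescence (ex 485 nm/em 530 nm). Percent encapsulation was derived from the ratio of fluorescence without versus with Triton X-100.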

[3] = DLS in PBS, peptoid:DSPC:Cholesterol:DMG-PEG2000 weight ratio 20:1.79:7.16:1.84, mRNA

PDI [1, 3]	Particle Size [1, 3]	% of injected dose remaining in liver [2]	mean percent encapsulation of RNA (mRNA)	SMILES	Total Flux (firefly luciferase)	IM Flux (luciferase)	SC Flux (luciferase)	hEPO (hEPO)	also measured
0.135	90.0 nm	6.65%	55.7%	CCCCCCCCCC(=O)OCCN(CC(=O)N(CCOC(=O)CCCCCCCCC)CC(=O)N(CC(=O)N(CCOC(=O)CCCCCCCCC)CC(=O)N(CCOC(=O)CCCCCCCCC)CC(=O)N(CC(N)=O)CC(CC)CCCC)CC(CC)CCCC)C(=O)CNC(CO)CO (centres unmarked) [Compound 16] (H-[N(CH(CH2OH)2)Gly][N(2-decanoyloxyethyl)Gly][N(2-decanoyloxyethyl)Gly][N(2-ethylhexyl)Gly][N(2-decanoyloxyethyl)Gly][N(2-decanoyloxyethyl)Gly][N(2-ethylhexyl)Gly]-NH2)	9.70E+09 p/s	3.09E+08 p/s	5.62E+08 p/s	422 ng/mL	Total Flux (luciferase expression) (firefly luciferase; formulation recipe F2): 2.35E+09 p/s; Total Flux (luciferase expression) (firefly luciferase; formulation recipe R1): 5.73E+08 p/s; Total Flux (luciferase expression) (firefly luciferase; formulation recipe R5): 6.72E+08 p/s; Total Flux (luciferase expression) (firefly luciferase; formulation recipe R7): 1.81E+09 p/s; Total Flux (luciferase expression) (firefly luciferase; formulation recipe R9): 1.14E+09 p/s; Particle Size ([1]; formulation recipe F2): 71.0 nm; Particle Size ([1]; formulation recipe R1): 59.8 nm; Particle Size ([1]; formulation recipe R5): 57.2 nm; Particle Size ([1]; formulation recipe R7): 69.1 nm; Particle Size ([1]; formulation recipe R9): 59.0 nm; % Encapsulation (mRNA; formulation recipe F2): 90.8%; % Encapsulation (mRNA; formulation recipe R1): 89.4%; % Encapsulation (mRNA; formulation recipe R5): 92.2%; % Encapsulation (mRNA; formulation recipe R7): 87.8%; % Encapsulation (mRNA; formulation recipe R9): 93.3%
0.156	89.3 nm	8.18%	59.3%	CCCCCCCCCC(=O)OCCCN(CC(=O)N(CC(N)=O)CC(CC)CCCC)C(=O)CN(CCCCCCCC)C(=O)CN(CC(CC)CCCC)C(=O)CN(CCCOC(=O)CCCCCCCCC)C(=O)CN(CCCCCCCC)C(=O)CNC(CO)CO (centres unmarked) [Compound 32] (H-[N(CH(CH2OH)2)Gly][N(octyl)Gly][Gly(N-(3-decanoyloxypropyl))][N(2-ethylhexyl)Gly][N(octyl)Gly][Gly(N-(3-decanoyloxypropyl))][N(2-ethylhexyl)Gly]-NH2)	7.45E+09 p/s	1.45E+08 p/s	9.18E+08 p/s	642 ng/mL	Total Flux (luciferase expression) (firefly luciferase; formulation recipe D22): 7.45E+09 p/s; Total Flux (luciferase expression) (firefly luciferase; formulation recipe R2): 7.39E+08 p/s; Total Flux (luciferase expression) (firefly luciferase; formulation recipe R5): 5.34E+08 p/s; Total Flux (luciferase expression) (firefly luciferase; formulation recipe R6): 9.19E+08 p/s; Total Flux (luciferase expression) (firefly luciferase; formulation recipe R7): 1.41E+09 p/s; Total Flux (luciferase expression) (firefly luciferase; formulation recipe R9): 8.16E+08 p/s; Particle Size ([1]; formulation recipe D22): 89.3 nm; Particle Size ([1]; formulation recipe R2): 71.0 nm; Particle Size ([1]; formulation recipe R5): 65.5 nm; Particle Size ([1]; formulation recipe R6): 68.4 nm; Particle Size ([1]; formulation recipe R7): 65.1 nm; Particle Size ([1]; formulation recipe R9): 64.9 nm; % Encapsulation (mRNA; formulation recipe D22): 59.3%; % Encapsulation (mRNA; formulation recipe R2): 88.2%; % Encapsulation (mRNA; formulation recipe R5): 86.0%; % Encapsulation (mRNA; formulation recipe R6): 93.7%; % Encapsulation (mRNA; formulation recipe R7): 79.1%; % Encapsulation (mRNA; formulation recipe R9): 92.7%
0.128	61.4 nm	16.40%	80.3%	CCCCCCCCCCCC(=O)OCCCN(CC(=O)N(CC(=O)N(CC(=O)N(CCCOC(=O)CCCCCCCCCCC)CC(=O)N(CC(=O)N(CC(N)=O)CC(CC)CCCC)CC(CC)CCCC)CC(CC)CCCC)CC(CC)CCCC)C(=O)CNC(CO)CO (centres unmarked) [Compound 51] (H-[N(CH(CH2OH)2)Gly][N(3-lauroyloxypropyl)Gly][N(2-ethylhexyl)Gly][N(2-ethylhexyl)Gly][N(3-lauroyloxypropyl)Gly][N(2-ethylhexyl)Gly][N(2-ethylhexyl)Gly]-NH2)	4.42E+09 p/s	1.84E+08 p/s	2.26E+08 p/s	591 ng/mL	Total Flux (luciferase expression) (firefly luciferase; formulation recipe D22): 4.42E+09 p/s; Total Flux (luciferase expression) (firefly luciferase; formulation recipe O5): 1.50E+09 p/s; Total Flux (luciferase expression) (firefly luciferase; formulation recipe O6): 1.27E+09 p/s; Particle Size ([1]; formulation recipe D22): 61.4 nm; Particle Size ([1]; formulation recipe O5): 58.4 nm; Particle Size ([1]; formulation recipe O6): 56.7 nm; % Encapsulation (mRNA; formulation recipe D22): 80.3%; % Encapsulation (mRNA; formulation recipe O5): 91.9%; % Encapsulation (mRNA; formulation recipe O6): 91.8%
0.153	88.5 nm	0.13%	36.0%	CCCCCCCCCC(=O)OCCCN(CC(N)=O)C(=O)CN(CC(CC)CCCC)C(=O)CN(CCCOC(=O)CCCCCCCCC)C(=O)CN(CCCOC(=O)CCCCCCCCC)C(=O)CN(CC(CC)CCCC)C(=O)CN(CCCOC(=O)CCCCCCCCC)C(=O)CNC(CO)CO (centres unmarked) [Compound 53] (H-[N(CH(CH2OH)2)Gly][Gly(N-(3-decanoyloxypropyl))][N(2-ethylhexyl)Gly][Gly(N-(3-decanoyloxypropyl))][Gly(N-(3-decanoyloxypropyl))][N(2-ethylhexyl)Gly][Gly(N-(3-decanoyloxypropyl))]-NH2)	4.46E+08 p/s	5.34E+08 p/s	2.78E+08 p/s	71.6 ng/mL	–
0.141	126.1 nm	8.64%	33.5%	CCCCCCCCCCCC(=O)OCCCN(CC(=O)N(CC(N)=O)CC(CC)CCCC)C(=O)CN(CCCCCC)C(=O)CN(CC(CC)CCCC)C(=O)CN(CCCOC(=O)CCCCCCCCCCC)C(=O)CN(CCCCCC)C(=O)CNC(CO)CO (centres unmarked) [Compound 54] (H-[N(CH(CH2OH)2)Gly][NHexGly][N(3-lauroyloxypropyl)Gly][N(2-ethylhexyl)Gly][NHexGly][N(3-lauroyloxypropyl)Gly][N(2-ethylhexyl)Gly]-NH2)	3.53E+08 p/s	1.52E+07 p/s	2.18E+07 p/s	37.4 ng/mL	–
0.139	90.2 nm	4.59%	26.3%	CCCCCCCCCC(=O)OCCCN(CC(=O)N(CC(=O)N(CCCCCC)CC(=O)N(CCCOC(=O)CCCCCCCCC)CC(=O)N(CC(=O)N(CCCCCC)CC(N)=O)CC(CC)CCCC)CC(CC)CCCC)C(=O)CNC(CO)CO (centres unmarked) [Compound 55] (H-[N(CH(CH2OH)2)Gly][Gly(N-(3-decanoyloxypropyl))][N(2-ethylhexyl)Gly][NHexGly][Gly(N-(3-decanoyloxypropyl))][N(2-ethylhexyl)Gly][NHexGly]-NH2)	6.22E+08 p/s	5.29E+07 p/s	9.41E+07 p/s	63.1 ng/mL	–
0.234	102.4 nm	24.83%	23.8%	CCCCCCCCCC(=O)OCCN(CC(N)=O)C(=O)CN(CC(CC)CCCC)C(=O)CN(CCOC(=O)CCCCCCCCC)C(=O)CN(CCOC(=O)CCCCCCCCC)C(=O)CN(CC(CC)CCCC)C(=O)CN(CCOC(=O)CCCCCCCCC)C(=O)CNC(CO)CO (centres unmarked) [Compound 56] (H-[N(CH(CH2OH)2)Gly][N(2-decanoyloxyethyl)Gly][N(2-ethylhexyl)Gly][N(2-decanoyloxyethyl)Gly][N(2-decanoyloxyethyl)Gly][N(2-ethylhexyl)Gly][N(2-decanoyloxyethyl)Gly]-NH2)	2.42E+09 p/s	5.78E+07 p/s	8.24E+07 p/s	551 ng/mL	Total Flux (luciferase expression) (firefly luciferase; formulation recipe O3): 5.66E+08 p/s; Total Flux (luciferase expression) (firefly luciferase; formulation recipe O5): 6.97E+08 p/s; Particle Size ([1]; formulation recipe O3): 57.9 nm; Particle Size ([1]; formulation recipe O5): 62.4 nm; % Encapsulation (mRNA; formulation recipe O3): 86.9%; % Encapsulation (mRNA; formulation recipe O5): 89.6%
